The text below walks through data of publication PMC6930494, “Immobilization of Naringinase from Penicillium decumbens on Chitosan Microspheres for Debittering Grapefruit Juice” (Molecules, 2019).

Broadly, the Km is the concentration of substrate that gives half-maximal velocity.

Molecules are shown by their SMILES.

For this assay, the system named is T1, naringinase.
T1 construct: gene naringinase alpha-L-rhamnosidase activity
Nature of the assay: initial rates of naringin hydrolysis, Davis or DNS method, Lineweaver-Burk. In kind it is biochemical, Penicillium decumbens. Conditions: free enzyme; 0.1 M acetate buffer pH 4.0, 50 °C; naringin 0.5-20 mM; commercial enzyme complex. The source says:
initial rates of naringin hydrolysis, Davis or DNS method, Lineweaver-Burk on naringinase

Take `C[C@@H]1O[C@@H](O[C@H]2[C@H](Oc3cc(O)c4c(c3)O[C@H](c3ccc(O)cc3)CC4=O)O[C@H](CO)[C@@H](O)[C@@H]2O)[C@H](O)[C@H](O)[C@H]1O` [naringin]: the Km turned out to be 2560 µM.
